Reference: patent publication US10307587B2, “Methods and devices for treating the skin” (VOMARIS INNOVATIONS, INC., priority 2014, dated 2019)

Columns and labels:
HUVEC cells [1] = assay: EF-induced reorientation of endothelial cells (orientation index Oi); format: cell-based, human; conditions: for orientation response / reorientation of cells in an EF: drug 50 μM, 1 hour before and during EF exposure
Experimental: HUVEC cells were seeded in a trough formed by two parallel (1 cm apart) strips of glass coverslip (No. 1, length of 22 mm) fixed to the base of the dish with silicone grease. Scratch lines were made perpendicular to the long axis of the chamber with a fine sterile needle and used as reference marks for directed cell migration. Cells were incubated for 24-48 hours (37° C., 5% CO2) before a roof coverslip was applied and sealed with silicone grease. The final dimensions of the chamber, through which current was passed, were 22×10×0.2 mm. Agar-salt bridges not less than 15 cm long were used to connect silver/silver-chloride electrodes in beakers of Steinberg's solution (58 mM NaCl, 0.67 mM KCl, 0.44 mM Ca(NO3)2, 1.3 mM MgSO4, 4.6 mM Trizma base, pH 7.8-8.0), to pools of excess culture medium at either side of the chamber. Field strengths were measured directly at the beginning of, the end of and during each experiment. No fluctuations in field strength were observed. […] (50 μM), the Rho kinase inhibitor Y27632 (50 μM), both Akt and Rho kinase inhibitors (10 μM each) or latrunculin (50 nM) for 1 hour before EF stimulation. The same concentration of drug was present during EF exposure in a CO2 incubator.
A series of images was taken with an image analyser immediately before EF exposure and at 4, 8 and 24 hours of EF exposure. Cell orientation was quantified as an orientation index (Oi), which is defined as Oi=cos 2(α), where α is the angle formed by the long axis of a cell with a line drawn perpendicular to the field lines. A cell with its long axis parallel to the vector of the EF will have an Oi of −1, and a cell with its long axis exactly perpendicular to the EF vector will have an Oi of +1. […] The significance of this two-dimensional orientation distribution against randomness was calculated using Rayleigh's distribution. A long:short axis ratio was calculated for assessment of elongation.
Cell alignment was quantified using an orientation index Oi=cos 2(α), where α is the angle formed between the long axis of a cell and a line drawn perpendicular to the field lines. […]

HUVEC cells [2] = assay: EF-induced elongation of endothelial cells (long:short axis ratio); format: cell-based, human; conditions: drug 50 μM
Experimental: HUVEC cells were seeded in a trough formed by two parallel (1 cm apart) strips of glass coverslip (No. 1, length of 22 mm) fixed to the base of the dish with silicone grease. Scratch lines were made perpendicular to the long axis of the chamber with a fine sterile needle and used as reference marks for directed cell migration. Cells were incubated for 24-48 hours (37° C., 5% CO2) before a roof coverslip was applied and sealed with silicone grease. The final dimensions of the chamber, through which current was passed, were 22×10×0.2 mm. […] Field strengths were measured directly at the beginning of, the end of and during each experiment. […]
A series of images was taken with an image analyser immediately before EF exposure and at 4, 8 and 24 hours of EF exposure. Cell orientation was quantified as an orientation index (Oi), which is defined as Oi=cos 2(α), where α is the angle formed by the long axis of a cell with a line drawn perpendicular to the field lines. […] The significance of this two-dimensional orientation distribution against randomness was calculated using Rayleigh's distribution. A long:short axis ratio was calculated for assessment of elongation.
HUVEC cells elongated dramatically in an EF. […] We quantified the elongation of the cells using a long:short axis ratio. […]

Human keratinocytes = assay: in vitro scratch assay (cell migration); format: cell-based; conditions: for increased keratinocyte migration observed with LLEC, under N-acetyl cysteine: 5 mM, pretreated 1 h before scratch assay
From the text: The in vitro scratch assay is an easy, low-cost and well-developed method to measure cell migration in vitro. The basic steps involve creating a “scratch” in a cell monolayer, capturing images at the beginning and at regular intervals during cell migration to close the scratch, and comparing the images to quantify the migration rate of the cells. Compared to other methods, the in vitro scratch assay is particularly suitable for studies on the effects of cell-matrix and cell-cell interactions on cell migration, mimic cell migration during wound healing in vivo and are compatible with imaging of live cells during migration to monitor intracellular events if desired. In addition to monitoring migration of homogenous cell populations, this method has also been adopted to measure migration of individual cells in the leading edge of the scratch. Not taking into account the time for transfection of cells, in vitro scratch assay per se usually takes from several hours to overnight.
Human keratinocytes were plated under plated under placebo or a LLEC system (labeled “PROCELLERA®”). Cells were also plated under silver-only or zinc-only dressings. After 24 hours, the scratch assay was performed.
Measurement of the potential difference between adjacent zinc and silver dots when the LLEC is in contact with de-ionized water yielded a value of about 0.2 Volts. Though the potential difference between zinc and silver dots can be measured, non-intrusive measurement of the electric field arising from contact between the LLEC and liquid medium was difficult. Keratinocyte migration was accelerated by exposure to an Ag/Zn LLEC.
Scratch assay—A cell migration assay was performed using culture inserts (IBIDI®, Verona, Wis.) according to the manufacturers instructions. Cell migration was measured using time-lapse phase-contrast microscopy following withdrawal of the insert. Images were analyzed using the AxioVision Rel 4.8 software.
N-Acetyl Cysteine Treatment—Cells were pretreated with 5 mM of the thiol antioxidant N-acetylcysteine (Sigma) for 1 h before start of the scratch assay. […]

COc1cc2ncnc(Nc3ccc(Cl)cc3F)c2cc1OC [VEGFR inhibitor, 4-[(4′-chloro-2′-fluoro)phenylamino]-6,7-dimethoxyquinazoline]
orientation response / reorientation of cells in an EF (HUVEC cells [1]): completely abolished

N#CC(=C(/N)Sc1ccccc1N)/C(C#N)=C(\N)Sc1ccccc1N [U0126]
Oi (HUVEC cells [1]): 0.33±0.03

1-L-6-hydroxymethyl-chiro-inositol 2-[(R)-2-O-methyl-3-O-octadecylcarbonate] [Akt inhibitor]
long:short axis ratio in EF-treated cells (HUVEC cells [2]): significantly decreased
orientation response / reorientation of cells in an EF (HUVEC cells [1]): significantly decreased

C[C@@H](N)[C@H]1CC[C@H](C(=O)Nc2ccncc2)CC1 [Y27632]
long:short axis ratio in EF-treated cells (HUVEC cells [2]): significantly decreased

COc1cc([C@@H]2c3cc4c(cc3[C@H](O)[C@H]3COC(=O)[C@@H]23)OCO4)cc(OC)c1OC [IGF-1R inhibitor, picropodophyllin]
increased keratinocyte migration observed with LLEC, under IGF-1R inhibitor (Human keratinocytes; 50 nM picropodophyllin just prior to scratch assay): attenuated the increased keratinocyte migration

CC(=O)N[C@@H](CS)C(=O)O [N-Acetyl Cysteine, N-acetylcysteine]
increased keratinocyte migration observed with LLEC, under N-acetyl cysteine (Human keratinocytes): failed to reproduce the increased migration
increased keratinocyte migration observed with LLEC, under N-acetyl cysteine (Human keratinocytes; listed as N-acetyl cysteine): prevented
